Our source for the GI50 and TGI values is PubChem BioAssay (NCI).

Several values for one entry are separate records, joined by “and”; a condition that tells them apart may be missing. Equal values may be shown once.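 48-hour exposure; five concentrations; linearly interpolated endpoints. GI50 is the concentration that inhibits growth by half. TGI denotes the concentration required for complete inhibition of growth.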 Some results are limits rather than exact numbers.

Assay in all cases: inhibition of tumour cell growth, NCI panel, 48 h
The test system of test [1] is 786-0 renal.
Test [2] has as its system ACHN renal.
Test [3] has as its system HOP-62 NSCLC.
For test [4], the system named is LOX IMVI melanoma.
Test [5] relates to NCI/ADR-RES ovarian.
In test [6] the test system is RPMI-8226 leukemia.
Test [7] concerns SF-268 CNS.
The subject of test [8] is SF-295 CNS.
Test [9] relates to SK-MEL-28 melanoma.
The test system of test [10] is TK-10 renal.

Take `O=c1c(OC/C(=N/O)c2ccccc2)c(-c2ccccc2)oc2ccccc12`: the GI50 was 19 µM in test [1]; 10.5 µM in test [2]; 20.3 µM in [3]; 10.5 µM in test [4]; 14 µM in test [5]; 7.07 µM in test [6]. Moreover, the GI50 in test [7] is 11.7 µM; in test [8], 11.2 µM; in test [9], 16.6 µM; in [10], 11.6 µM. The TGI is more than 50 µM in test [1]; 28 µM in test [2]; more than 50 µM in test [3]; 19.5 µM in test [4]; 42 µM in test [5]; 15.6 µM in test [6]. Besides, the TGI in test [7] came out at 25 µM; in [8], 23.2 µM; in test [9] it was 28.9 µM; in test [10], 22.8 µM.
For the molecule `Cn1cnc([N+](=O)[O-])c1Sc1ncnc2nc[nH]c12`, the GI50 in [1] is 3.25 µM and 3.77 µM; in test [2], 38.1 µM and 41.7 µM; in test [3] it was 0.882 µM and 5.79 µM; in test [4] it was 1.11 µM and 1.63 µM; in [5], 3.27 µM and 5.39 µM; in test [6], 3.18 µM and 1.55 µM. Moreover, the GI50 in [7] is 5.32 µM and 6.48 µM; in test [8], 1.61 µM and 9.82 µM; in test [9], 37.8 µM and 40.2 µM; in test [10], 3.58 µM and 3.93 µM. Moreover, the TGI in [1], in test [2], in test [3], in test [4], in test [5] and in test [6] was more than 100 µM throughout. The TGI in test [7], in test [8], in test [9] and in [10] was more than 100 µM each time.
`OC1CCC(Oc2cccc3cnc(Nc4ccc5nc[nH]c5c4)nc23)CC1` (stereo not given): the GI50 in test [1] was 0.336 µM; in [2], 0.313 µM; in [3] it was 0.331 µM; in test [4], 0.231 µM; in test [5] it was 1.6 µM; in [6] it was 0.219 µM. Further, the GI50 in [7] is 0.413 µM; in test [8] it was 0.429 µM; in test [9], 0.791 µM; in test [10], 0.296 µM. The TGI in test [1] was 10.1 µM; in test [2], more than 100 µM; in [3] it was 14.9 µM; in test [4] it was 11.4 µM; in test [5] it was 13 µM; in [6], 0.659 µM. Besides, the TGI in test [7] came to 12.8 µM; in test [8], 12 µM; in [9], 6.83 µM; in test [10], 11.4 µM.
Regarding `CN(C)CN1C(=O)S/C(=C2\C(=O)N(CN(C)C)c3ccccc32)C1=O`, the TGI is more than 100 µM in [1]; more than 100 µM in [2]; more than 100 µM in [3]; 73.2 µM in test [4]; more than 100 µM in test [5]; 54.8 µM in [6]. Further, the TGI in test [7], in test [8], in test [9] and in [10] was more than 100 µM each time.
With `O=C(Nc1ccc(Br)cc1)c1cc(Br)cc(Br)c1O`, the GI50 was 3.02 µM in test [1]; 2.31 µM in test [2]; 2.45 µM in test [3]; 3.24 µM in test [4]; 2.94 µM in [5]; 1.67 µM in [6]. For the same molecule, the GI50 was 3.59 µM in test [7], 1.83 µM in [8], 4.71 µM in test [9] and 4.2 µM in test [10]. In addition, the TGI in [1] was 29.7 µM; in test [2] it was 6.66 µM; in [3], 6.5 µM; in [4], 10.1 µM; in test [5], 9.47 µM; in [6], 6.26 µM. Besides, the TGI is 18.6 µM in test [7], 5 µM in test [8], 31.4 µM in test [9] and more than 100 µM in test [10].
With `O=C(/C=C/c1ccc([N+](=O)[O-])o1)NNC(=O)c1cc2ccccc2cc1O`, the GI50 in [1] was 1.54 µM; in test [2], 0.688 µM; in test [3], 3.67 µM; in test [4], 0.395 µM; in [5], 1.48 µM; in test [6], 2.3 µM. Also, the GI50 in [7] was 1.29 µM; in test [8] it was 7.62 µM; in test [9], 0.596 µM; in [10], 2.9 µM. Also, the TGI in test [1] is 3.47 µM; in [2] it was 2.24 µM; in [3], more than 100 µM; in [4] it was 1.98 µM; in [5], 10.6 µM; in test [6], more than 100 µM. Moreover, the TGI is more than 100 µM in test [7], more than 100 µM in test [8], 2.21 µM in test [9] and more than 100 µM in [10].
In the case of `O=Nc1c2cccnc2n2nnc3ccc(Cl)cc3c12`, the GI50 in test [1] was 1.25 µM; in test [2] it was 0.371 µM; in test [3], 4.64 µM; in [4], 1.35 µM; in test [5], 1.29 µM; in test [6], 0.258 µM. Moreover, the GI50 in test [7] is 1.8 µM; in [8] it was 4.24 µM; in test [9] it was 2.39 µM; in [10], 1.66 µM. Further, the TGI in test [1] stood at 6.11 µM; in [2], 2.02 µM; in test [3] it was 11.4 µM; in test [4], 6.19 µM; in [5] it was 7.84 µM; in test [6] it was 1.7 µM. Besides, the TGI in test [7] was determined as 9.4 µM; in test [8], 16.2 µM; in test [9] it was 5.36 µM; in [10] it was 7.6 µM.
Regarding `CCc1ccc(C2=C(O)C(=O)C(c3ccc(CC)cc3)=C(O)C2=O)cc1`, the GI50 was 1.57 µM in test [1]; 2.01 µM in test [2]; 1.5 µM in test [3]; 2.84 µM in test [4]; 2.21 µM in test [5]; 1.81 µM in test [6]. In addition, the GI50 in [7] is 2.14 µM; in test [8], 1.93 µM; in test [9], 2.65 µM; in test [10] it was 2.26 µM. Also, the TGI in [1] is 2.95 µM; in test [2], 6.28 µM; in test [3] it was 3.42 µM; in test [4], 12.1 µM; in test [5] it was 5.86 µM; in test [6] it was 6.43 µM. For the same molecule, the TGI in [7] is 6.44 µM; in test [8] it was 6.7 µM; in test [9], 8.89 µM; in test [10] it was 8.61 µM.
